Data reported in patent US6444454B1, “Method for increasing the gene expression of saccharose synthase” (Forschungszentrum Julich GmbH, priority 1997, dated 2002).

Tests used:
Type in all cases: biochemical
Saccharose Synthase [1] = target: T1, Saccharose Synthase (Solanum tuberosum, UniProt P10691); assay: acceptance of different NDP's in saccharose splitting; conditions: NDP 1.6 mM, saccharose 500 mM, 0.035 U enzyme, pH 7.6, 30° C.
T1 construct: made in house; host or cells: Saccharomyces cerevisiae strain 22574d, plasmid pDRSuSy (pDR195, proton-ATPase promoter)
T1 sequence (P10691 whole entry): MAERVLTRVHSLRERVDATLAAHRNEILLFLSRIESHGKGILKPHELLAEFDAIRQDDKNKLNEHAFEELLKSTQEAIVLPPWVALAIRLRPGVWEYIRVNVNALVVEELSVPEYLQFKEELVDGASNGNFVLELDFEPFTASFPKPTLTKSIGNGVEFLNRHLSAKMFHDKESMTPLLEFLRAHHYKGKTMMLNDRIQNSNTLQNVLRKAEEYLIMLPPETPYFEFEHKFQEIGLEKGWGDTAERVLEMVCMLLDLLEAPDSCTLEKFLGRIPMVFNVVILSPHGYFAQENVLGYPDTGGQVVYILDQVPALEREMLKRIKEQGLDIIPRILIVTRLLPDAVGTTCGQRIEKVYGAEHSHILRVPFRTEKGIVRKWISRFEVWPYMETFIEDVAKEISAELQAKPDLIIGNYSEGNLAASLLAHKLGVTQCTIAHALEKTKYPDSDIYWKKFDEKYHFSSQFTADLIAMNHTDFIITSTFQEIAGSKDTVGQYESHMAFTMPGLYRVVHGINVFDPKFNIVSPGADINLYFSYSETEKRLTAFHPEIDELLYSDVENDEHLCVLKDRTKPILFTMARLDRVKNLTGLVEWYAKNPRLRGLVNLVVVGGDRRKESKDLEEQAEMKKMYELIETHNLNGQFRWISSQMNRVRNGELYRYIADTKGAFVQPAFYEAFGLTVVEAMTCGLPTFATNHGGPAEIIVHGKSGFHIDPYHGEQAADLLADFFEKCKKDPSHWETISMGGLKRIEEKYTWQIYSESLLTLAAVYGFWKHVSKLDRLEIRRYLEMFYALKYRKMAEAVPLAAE
Method: Initially the acceptance of the recombinant saccharose synthase for different NDP's in saccharose splitting was investigated. The reaction conditions was as follows: [table] The reactions with different NDP's were carried out at a temperature of 30° C.

Saccharose Synthase [2] = target: T1, Saccharose Synthase; assay: Michaelis-Menten-Kinetics of saccharose splitting with UDP; conditions: UDP 1.6 mM, 14 mU enzyme, pH 7.6, 30° C., 10 minutes
Method: In addition, the Michaelis-Menten-Kinetics of the saccharose splitting with the recombinant saccharose synthase with UDP as a function of saccharose was determined.
The reaction condition for this were as follows:
The reactions were carried out at a temperature of 30° C.; the reaction time amounted in each case to 10 minutes.
In FIG. 5, the Michaelis-Menten-Kinetics of saccharose synthase as a function of saccharose concentration is shown. […] The concentrations of more than 600 mM saccharose substrate excess limiting sets in.

Saccharose Synthase [3] = target: T1, Saccharose Synthase; assay: splitting of disaccharides with UDP; conditions: disaccharide 250 mM, UDP 2 mM, 24 hours at 30° C.
Method: For the synthase of UDP-2-Desoxyglucose and UDP-N-Acetylglucoseamine, the following reaction composition is used. [table] The reaction mixture is incubated for 24 hours at 30° C. and the reaction stopped at 95° over a period of 5 minutes.

Molecule | acceptance of NDP's in saccharose splitting as a function of reaction time (sequence) (Saccharose Synthase [1]) | also measured
Nc1ncnc2c1ncn2[C@@H]1O[C@H](COP(=O)(O)OP(=O)(O)O)[C@@H](O)[C@H]1O [ADP] | UDP>ADP=TDP>CDP>GDP | –
Nc1ccn([C@@H]2O[C@H](COP(=O)(O)OP(=O)(O)O)[C@@H](O)[C@H]2O)c(=O)n1 [CDP] | UDP>ADP=TDP>CDP>GDP | –
Nc1nc2c(ncn2[C@@H]2O[C@H](COP(=O)(O)OP(=O)(O)O)[C@@H](O)[C@H]2O)c(=O)[nH]1 [GDP] | UDP>ADP=TDP>CDP>GDP | –
Cc1cn([C@H]2C[C@H](O)[C@@H](COP(=O)(O)OP(=O)(O)O)O2)c(=O)[nH]c1=O [TDP] | UDP>ADP=TDP>CDP>GDP | –
O=c1ccn([C@@H]2O[C@H](COP(=O)(O)OP(=O)(O)O)[C@@H](O)[C@H]2O)c(=O)[nH]1 [UDP] | UDP>ADP=TDP>CDP>GDP | –
OC[C@H]1O[C@@](CO)(O[C@H]2O[C@H](CO)[C@@H](O)[C@H](O)[C@H]2O)[C@@H](O)[C@@H]1O [saccharose] | – | Km (Saccharose Synthase [2]): 66 mM; saccharose concentration at which substrate excess limiting sets in (Saccharose Synthase [2]): more than 600 mM
OC[C@H]1OC(CO)(O[C@@H]2C[C@@H](O)[C@H](O)[C@@H](CO)O2)[C@@H](O)[C@@H]1O (stereo partly drawn) [two desoxy saccharose, 2-desoxysaccharose] | – | disaccharide split off (Saccharose Synthase [3]; 0.11 U saccharose synthase): 5.9%
N-acetyl saccharosamine | – | disaccharide converted (Saccharose Synthase [3]; 1.25 U of the enzyme): 12.4%
